The assay addresses T1, glucocerebrosidase (GCase; recombinant human-derived GBA/Glucosylceramidase, rGCase) (Homo sapiens, UniProt P04062).
T1 construct: gene GBA1; recombinant human-derived GBA/Glucosylceramidase (rGCase)
T1 sequence (P04062 40-536): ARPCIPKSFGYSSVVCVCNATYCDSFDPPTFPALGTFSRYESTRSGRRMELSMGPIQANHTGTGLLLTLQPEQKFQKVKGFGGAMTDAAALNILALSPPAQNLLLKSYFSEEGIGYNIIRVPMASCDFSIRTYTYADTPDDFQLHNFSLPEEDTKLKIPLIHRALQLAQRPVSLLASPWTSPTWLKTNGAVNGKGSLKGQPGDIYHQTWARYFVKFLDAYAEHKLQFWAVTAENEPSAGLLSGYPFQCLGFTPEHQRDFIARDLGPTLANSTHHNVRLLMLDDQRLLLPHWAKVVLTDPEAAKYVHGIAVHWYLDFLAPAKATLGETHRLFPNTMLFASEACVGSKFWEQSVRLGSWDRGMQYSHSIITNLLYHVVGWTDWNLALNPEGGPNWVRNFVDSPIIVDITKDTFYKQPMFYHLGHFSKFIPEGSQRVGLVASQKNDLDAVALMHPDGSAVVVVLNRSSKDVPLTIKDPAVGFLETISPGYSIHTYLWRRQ
The assay can be described thus: fluorogenic 4MU-β-Glc inhibition assay with recombinant GCase, pH […]. The format is biochemical.

What is called IC50 is the point on the concentration scale where inhibition reaches its midpoint. For `CC(=O)NCC(=O)O` [NAG, N-acetylglycine], the IC50 was found to be 48.5 µM.

Values taken from paper PMC12560097, “An injectable hydrogel containing N-acetylglycine for the treatment of Gaucher disease” (RSC Advances, 2025).
